Experimental data from ChEMBL document CHEMBL4219153, “Identification of second-generation P2X3 antagonists for treatment of pain” (Bioorg Med Chem Lett, 2018).

What was measured:
[1] = Half life in rat; type: ADME, organism-based; settings: in vivo
[2] = Protein binding in rat plasma; type: ADME, cell-free; settings: read-out: PPB (converted)
[3] = biological target: T1, P2X purinoceptor 3 (Homo sapiens) (UniProt P56373); test: Antagonist activity at recombinant human P2X3 receptor expressed in Flp-In-293 cells assessed as inhibition of alphabeta-meATP-induced calcium flux preincubated for 10 mins followed by alphabeta-meATP addition measured at 5 sec intervals by Fluo-4 dye based FLIPR assay; type: cell-based
T1 sequence (whole entry): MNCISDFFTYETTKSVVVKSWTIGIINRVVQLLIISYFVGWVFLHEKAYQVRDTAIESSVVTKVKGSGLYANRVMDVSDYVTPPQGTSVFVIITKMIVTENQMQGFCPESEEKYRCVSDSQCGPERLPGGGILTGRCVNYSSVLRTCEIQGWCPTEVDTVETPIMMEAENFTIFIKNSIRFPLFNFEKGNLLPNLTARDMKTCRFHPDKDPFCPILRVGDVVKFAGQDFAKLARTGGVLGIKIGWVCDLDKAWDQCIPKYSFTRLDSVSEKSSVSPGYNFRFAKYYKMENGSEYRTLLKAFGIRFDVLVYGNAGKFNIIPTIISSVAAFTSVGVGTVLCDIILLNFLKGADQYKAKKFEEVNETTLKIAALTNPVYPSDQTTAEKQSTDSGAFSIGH

[4] = Intrinsic clearance in rat; type: ADME, organism-based; settings: in vivo
[5] = biological target: Cytochrome P450 2C9 (Homo sapiens, UniProt P11712); test: Inhibition of CYP2C9 (unknown origin); type: ADME
Cytochrome P450 2C9, sequence (P11712 whole entry): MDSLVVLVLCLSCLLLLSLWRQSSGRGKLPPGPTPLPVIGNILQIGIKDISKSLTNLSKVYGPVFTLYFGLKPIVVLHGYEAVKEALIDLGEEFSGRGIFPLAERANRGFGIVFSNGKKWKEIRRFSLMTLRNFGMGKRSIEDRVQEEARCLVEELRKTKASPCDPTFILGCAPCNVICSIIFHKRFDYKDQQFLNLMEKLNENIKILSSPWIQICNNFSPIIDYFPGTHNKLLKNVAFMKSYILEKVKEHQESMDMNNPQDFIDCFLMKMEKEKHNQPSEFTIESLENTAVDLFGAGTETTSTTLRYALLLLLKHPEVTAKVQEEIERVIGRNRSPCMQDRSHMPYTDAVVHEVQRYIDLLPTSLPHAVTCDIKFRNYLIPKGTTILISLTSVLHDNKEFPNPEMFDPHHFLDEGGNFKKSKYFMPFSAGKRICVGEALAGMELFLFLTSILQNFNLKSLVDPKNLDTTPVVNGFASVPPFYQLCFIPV

[6] = biological target: T2, Nuclear receptor subfamily 1 group I member 2 (Homo sapiens, UniProt O75469); test: Activation of PXR (unknown origin); type: ADME
T2 sequence (O75469 whole entry): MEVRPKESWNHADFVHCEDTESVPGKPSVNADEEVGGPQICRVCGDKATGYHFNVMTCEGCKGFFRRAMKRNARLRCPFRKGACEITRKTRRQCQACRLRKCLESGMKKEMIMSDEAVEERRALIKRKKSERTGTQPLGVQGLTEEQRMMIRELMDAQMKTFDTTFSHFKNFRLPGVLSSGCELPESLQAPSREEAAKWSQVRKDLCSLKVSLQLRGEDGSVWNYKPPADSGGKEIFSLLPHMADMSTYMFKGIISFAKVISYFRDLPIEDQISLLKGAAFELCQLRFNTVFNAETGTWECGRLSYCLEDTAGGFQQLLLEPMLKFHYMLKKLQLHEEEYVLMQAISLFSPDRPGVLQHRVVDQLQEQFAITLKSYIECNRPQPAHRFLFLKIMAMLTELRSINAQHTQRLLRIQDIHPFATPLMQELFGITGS

[7] = tested on: Rattus norvegicus; test: Antinociceptive activity in complete freund's adjuvant induced mechanical hypersensitivity Sprague-Dawley rat model assessed as reversal of mechanical hyperalgesia by measuring hind paw withdrawal thresholds at 60 mg/kg, po; type: functional
[8] = Protein binding in dog plasma; type: ADME, cell-free, Canis lupus familiaris; settings: read-out: PPB (converted)
[9] = Oral bioavailability in dog; type: ADME, organism-based, Canis lupus familiaris; settings: in vivo
[10] = Oral bioavailability in rat; type: ADME, organism-based; settings: in vivo
[11] = Half life in dog; type: ADME, organism-based, Canis lupus familiaris; settings: in vivo
[12] = Intrinsic clearance in dog; type: ADME, organism-based, Canis lupus familiaris; settings: in vivo
[13] = biological target: T3, UDP-glucuronosyltransferase 1A1 (Homo sapiens, UniProt P22309); test: Inhibition of UGT1A1 in human liver microsomes assessed as decrease in estradiol-3 glucuronidation; type: ADME
T3 sequence (P22309 whole entry): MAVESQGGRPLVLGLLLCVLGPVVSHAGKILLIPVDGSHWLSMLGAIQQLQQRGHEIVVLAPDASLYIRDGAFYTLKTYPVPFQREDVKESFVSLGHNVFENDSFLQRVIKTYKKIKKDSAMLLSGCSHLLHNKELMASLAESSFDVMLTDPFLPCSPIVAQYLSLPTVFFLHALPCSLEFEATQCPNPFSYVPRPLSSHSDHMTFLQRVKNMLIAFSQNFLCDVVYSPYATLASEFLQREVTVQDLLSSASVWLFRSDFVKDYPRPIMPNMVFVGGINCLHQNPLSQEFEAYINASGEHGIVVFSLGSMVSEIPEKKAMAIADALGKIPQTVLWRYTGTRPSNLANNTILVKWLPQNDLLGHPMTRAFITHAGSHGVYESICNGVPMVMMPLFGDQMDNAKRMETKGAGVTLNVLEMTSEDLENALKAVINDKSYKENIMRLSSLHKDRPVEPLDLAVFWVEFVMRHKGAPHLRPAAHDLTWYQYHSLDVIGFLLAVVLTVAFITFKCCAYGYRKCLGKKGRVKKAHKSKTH

[14] = biological target: T4, P2X purinoceptor 3 (Homo sapiens, UniProt P56373); test: Antagonist activity at recombinant human P2X3 receptor expressed in Flp-In-293 cells assessed as inhibition of CTP-induced […] current response preincubated for 2 mins followed by CTP addition along with test compound by whole cell patch-clamp method; type: cell-based
T4 sequence (P56373 whole entry): T1 sequence (whole entry)

[15] = biological target: T5, PXR (Homo sapiens, UniProt O75469); test: Activation of PXR (unknown origin) at 10 uM relative to control; type: ADME; settings: read-out: Activity
T5 sequence (O75469 whole entry): T2 sequence (O75469 whole entry)

[16] = Oral bioavailability in rhesus monkey; type: ADME, organism-based, Macaca mulatta; settings: in vivo
[17] = biological target: T3, UDP-glucuronosyltransferase 1A1; test: Inhibition of human UGT1A1 expressed in baculovirus infected insect cells using bilirubin as substrate measured after 10 mins by HPLC analysis; type: ADME

Compound | fraction unbound [2] | IC50 [3] [nM] | CLint scaled [4] [mL/min/kg] | other results
C[C@@H](NC(=O)c1cc(-c2ccc(Cl)cc2)cc(C(C)(C)O)c1)c1ccc(C(F)(F)F)[n+]([O-])c1 | 0.026 | 21 | 214 | half-life [1]: 2.4 h
Cc1ccc(-c2cc(C(=O)N[C@H](C)c3ccc(C(F)(F)F)nc3)cc(-c3ncccc3F)c2)nc1 | 0.014 | 8 |  | 
Cc1ccc(-c2cc(C(=O)N[C@H](C)c3ccc(F)c[n+]3[O-])cc(-c3ncccc3F)c2)nc1 | 0.096 | 2 |  | 
Cc1ccc(-c2cc(C(=O)N[C@H](C)c3ccc(C(F)(F)F)nc3)cc(C(C)(C)O)c2)nc1 | 0.048 | 14 |  | IC50 [5]: 19000 nM; EC50 [6]: 18000 nM
Cc1ccc(-c2cc(C(=O)N[C@H](C)c3ccc(C(F)(F)F)[n+]([O-])c3)cc(-c3ncccc3F)c2)nc1 | 0.048 | 5 |  | 
C[C@@H](NC(=O)c1cc(-c2ccc(Cl)cn2)cc(C(C)(C)O)c1)c1ccc(C(F)(F)F)[n+]([O-])c1 | 0.238 | 14 | 69 | half-life [1]: 1.3 h; IC50 [5]: 82000 nM; EC90 [7]: 160 nM; fraction unbound [8]: 0.263; bioavailability [9]: 63%; bioavailability [10]: 13%; EC50 [6]: > 30000 nM; half-life [11]: 3.9 h; CLint scaled [12]: 7.7 mL/min/kg; IC50 [13]: > 20000 nM; IC50 [14]: 18 nM
Cc1ccc(-c2cc(C(=O)NCCc3nc(C)no3)cc(-c3ncccc3F)c2)nc1 |  | 45 |  | 
Cc1ccc(-c2cc(C(=O)N[C@H](C)c3nnc[nH]3)cc(-c3ncccc3F)c2)nc1 |  | 284 |  | 
Cc1ccc(-c2cc(C(=O)N[C@H](C)c3ccc(F)cn3)cc(-c3ncccc3F)c2)nc1 | 0.008 | 8 | 24800 | EC50 [6]: 6000 nM
Cc1ccc(-c2cc(C(=O)N[C@H](C)c3ccc(C(F)(F)F)[n+]([O-])c3)cc(C(C)(C)O)c2)cc1 | 0.046 | 20 | 6790 | half-life [1]: 0.2 h
C[C@@H](NC(=O)c1cc(-c2ccc(F)cn2)cc(C(C)(C)O)c1)c1ccc(C(F)(F)F)[n+]([O-])c1 | 0.447 | 82 | 477 | half-life [1]: 0.48 h
Cc1ccc(-c2cc(C(=O)N[C@H](C)c3ccc(C(F)(F)F)[n+]([O-])c3)cc(C(C)(C)O)c2)nc1 | 0.376 | 5 |  | IC50 [5]: > 50000 nM; EC50 [6]: > 30000 nM
Cc1ccc(-c2cc(C(=O)N[C@H](C)c3nc(C)no3)cc(-c3ncccc3F)c2)nc1 | 0.004 | 3 |  | 
Cc1ccc(-c2cc(C(=O)N[C@H](C)c3ccc(F)cn3)cc(N3CCOCC3)c2)nc1 | 0.149 | 47 | 533 | EC50 [6]: > 30000 nM
Cc1ccc(-c2cc(C(=O)N[C@H](C)c3ccc(F)cn3)cc(C(C)(C)O)c2)nc1 | 0.18 | 67 |  | EC50 [6]: 2000 nM
Cc1ccc(-c2cc(C(=O)N[C@@H](C)c3nc(C)no3)cc(-c3ncccc3F)c2)nc1 |  | 17 |  | 
Cc1ccc(-c2cc(C(=O)N[C@H](C)c3ccc(F)cn3)cc(C3=NO[C@H](c4ccccn4)C3)c2)nc1 | 0.016 | 21 | 133 | activity at 10 µM [15]: 47%; bioavailability [16]: 47%; half-life [1]: 1 h; IC50 [5]: 5700 nM; IC50 [17]: 1000 nM; EC90 [7]: 3000 nM; bioavailability [9]: 68%; bioavailability [10]: 60%; IC50 [14]: 24 nM
Cc1ccc(-c2cc(C(=O)N[C@H](C)c3ccc(F)cn3)cc(-n3nccn3)c2)nc1 | 0.026 | 37 | 3910 | 
Cc1ccc(-c2cc(C(=O)NC3(c4nc(C)no4)CC3)cc(-c3ncccc3F)c2)nc1 |  | 170 |  | 
Cc1ccc(-c2cc(C(=O)N[C@@H](c3nc(C)no3)C3CC3)cc(-c3ncccc3F)c2)nc1 |  | 30 |  | 
Cc1ccc(-c2cc(C(=O)NCc3nc(C(C)C)no3)cc(-c3ncccc3F)c2)nc1 |  | 155 |  | 
Cc1ccc(-c2cc(C(=O)N[C@@H](C)c3nnc[nH]3)cc(-c3ncccc3F)c2)nc1 | 0.012 | 10 |  | 
